IC50 data for 33 compounds are collected here from patent publication US20190134005A1 (BioMarin Pharmaceutical Inc., priority 2016, published 2019).

In the assay the target is T1, human CGT (Homo sapiens, UniProt Q16880).
T1 sequence (Q16880 21-541): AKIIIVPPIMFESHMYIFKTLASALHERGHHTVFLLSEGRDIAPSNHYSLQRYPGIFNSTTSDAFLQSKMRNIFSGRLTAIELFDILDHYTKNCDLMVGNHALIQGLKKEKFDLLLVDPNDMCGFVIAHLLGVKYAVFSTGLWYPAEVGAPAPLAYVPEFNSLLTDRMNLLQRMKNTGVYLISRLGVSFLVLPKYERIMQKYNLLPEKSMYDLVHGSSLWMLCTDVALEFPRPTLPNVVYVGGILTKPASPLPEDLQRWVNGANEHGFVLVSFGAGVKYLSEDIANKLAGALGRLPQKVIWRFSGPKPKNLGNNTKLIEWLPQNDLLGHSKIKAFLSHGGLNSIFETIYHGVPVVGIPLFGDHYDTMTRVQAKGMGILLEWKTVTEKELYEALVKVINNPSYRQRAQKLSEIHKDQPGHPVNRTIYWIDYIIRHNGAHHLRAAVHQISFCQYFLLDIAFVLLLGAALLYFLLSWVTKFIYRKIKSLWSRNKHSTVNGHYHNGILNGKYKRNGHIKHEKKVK
As to the kind of experiment: Assay 1: CGT Enzymatic Assay (RapidFire/MS/MS, 0.01% Tween 80). It is filed as biochemical. The settings on record: Table 1, Compounds of Formula (I) and Formula (II); CGT enzymatic assay; read-out: IC50.

pIC50: −log10 of the molar value. Bounds are passed on as bounds.

What is called pIC50 is the IC50 on a negative log10 scale, so that one unit is a factor of ten. Consider `CCCCCCC1(O)C(=O)N(c2ccc(Br)cc2)C(=O)N1c1ccc(Br)cc1` (stereo not drawn) [Example 157, 1,3-bis(4-bromophenyl)-5-hexyl-5-hydroxyimidazolidine-2,4-dione], for which the negative logarithm of the IC50 (pIC50) is 4.00 to 4.30.
For the compound `CC1(C)N(c2ccc(Cl)cc2)C(=O)N(c2ccc(Cl)cc2)C1(O)c1cc(Br)cc(C#N)c1` (stereo not drawn) [Example 158, 3-(1,3-bis(4-chlorophenyl)-4-hydroxy-5,5-dimethyl-2-oxoimidazolidin-4-yl)-5-bromobenzonitrile], the pIC50 was > 6.00.
On to `CC1(C(F)(F)F)N(c2ccc(Cl)cc2)C(=O)N(c2ccc(Cl)cc2)C1(O)c1cccc(OC(F)(F)F)c1` (stereo not drawn) [Example 159, 1,3-bis(4-chlorophenyl)-4-hydroxy-5-methyl-4-(3-(trifluoromethoxy)phenyl)-5-(trifluoromethyl)imidazolidin-2-one], for which the pIC50 is > 6.00.
Take `COc1ccc(N2C(=O)N(c3ccc(OC)cc3)C(O)(c3ccccc3)C2=O)cc1` (stereo not drawn) [Example 160, 5-hydroxy-1,3-bis(4-methoxyphenyl)-5-phenylimidazolidine-2,4-dione]: the pIC50 is < 4.30.
Next, `O=C1N(c2ccc(F)cc2)C(=O)C(O)(c2ccccc2)N1c1ccc(F)cc1` (stereo not drawn) [Example 161, 1,3-bis(4-fluorophenyl)-5-hydroxy-5-phenylimidazolidine-2,4-dione]: < 4.30; `O=C1N(c2cccc(Cl)c2)C(=O)C(O)(c2ccccc2)N1c1cccc(Cl)c1` (stereo not drawn) [Example 162, 1,3-bis(3-chlorophenyl)-5-hydroxy-5-phenylimidazolidine-2,4-dione]: 4.30 to 5.00; `CCC1(C)N(c2ccc(Cl)cc2)C(=O)N(c2ccc(Cl)cc2)C1(O)c1cccc(OC(F)(F)F)c1` (stereo not drawn) [Example 163, 1,3-bis(4-chlorophenyl)-4-ethyl-5-hydroxy-4-methyl-5-(3-(trifluoromethoxy)phenyl)imidazolidin-2-one]: > 6.00.
For `O=C1N(c2ccc(Br)cc2)C(=O)C(O)(c2ccc(OC3CC3)cc2)N1c1ccc(Br)cc1` (stereo not drawn) [Example 164, 1,3-bis(4-bromophenyl)-5-(4-cyclopropoxyphenyl)-5-hydroxyimidazolidine-2,4-dione], the pIC50 is < 4.30.
Regarding `O=C1N(c2ccc(Cl)cc2)C2(CCC2)C(O)(c2cccc(OC(F)F)c2)N1c1ccc(Cl)cc1` (stereo not drawn) [Example 165, 5,7-bis(4-chlorophenyl)-8-(3-(difluoromethoxy)phenyl)-8-hydroxy-5,7-diazaspiro[3.4]octan-6-one], the pIC50 is > 6.00.
For `CN(C)CC1N(c2ccc(Cl)cc2)C(=O)N(c2ccc(Cl)cc2)C1(O)c1cccc(OC(F)(F)F)c1` (stereo not drawn) [Example 166, 1,3-bis(4-chlorophenyl)-5-((dimethylamino)methyl)-4-hydroxy-4-(3-(trifluoromethoxy)phenyl)imidazolidin-2-one] the value was > 6.00.
On to `O=C1N(c2ccc(Br)cc2)C(=O)C(O)(c2ccc(OC3CCCC3)cc2)N1c1ccc(Br)cc1` (stereo not drawn) [Example 167, 1,3-bis(4-bromophenyl)-5-(4-(cyclopentyloxy)phenyl)-5-hydroxyimidazolidine-2,4-dione], for which the pIC50 was 4.00 to 4.30.
For `O=C1N(c2ccc(OC3CCCC3)cc2)C(=O)C(O)(c2ccccc2)N1c1ccc(OC2CCCC2)cc1` (stereo not drawn) [Example 168, 1,3-bis(4-(cyclopentyloxy)phenyl)-5-hydroxy-5-phenylimidazolidine-2,4-dione] the value was < 4.30.
For `O=C1N(c2ccc(Br)cc2)C(=O)C(O)(c2ccc(OC3CCCCC3)cc2)N1c1ccc(Br)cc1` (stereo not drawn) [Example 169, 1,3-bis(4-bromophenyl)-5-(4-(cyclohexyloxy)phenyl)-5-hydroxyimidazolidine-2,4-dione] the value was < 4.30; for `CCCC1(C)N(c2ccc(Cl)cc2)C(=O)N(c2ccc(Cl)cc2)C1(O)c1cccc(OC(F)(F)F)c1` (stereo not drawn) [Example 170, 1,3-bis(4-chlorophenyl)-4-hydroxy-5-methyl-5-propyl-4-(3-(trifluoromethoxy)phenyl)imidazolidin-2-one], > 6.00; for `O=C1N(c2ccc(Br)cc2)C(=O)C(O)(c2ccc(OC3CC3)c(Cl)c2)N1c1ccc(Br)cc1` (stereo not drawn) [Example 171, 1,3-bis(4-bromophenyl)-5-(3-chloro-4-cyclopropoxyphenyl)-5-hydroxyimidazolidine-2,4-dione], 4.00 to 4.30.
Turning to `O=C1N(c2ccc(Br)cc2)C(=O)C(O)(c2ccc(F)cc2)N1c1ccc(Br)cc1` (stereo not drawn) [Example 172, 1,3-bis(4-bromophenyl)-5-(4-fluorophenyl)-5-hydroxyimidazolidine-2,4-dione], the pIC50 is 4.30 to 5.00.
Turning to `O=C1N(c2ccc(Br)cc2)C(=O)C(O)(c2ccc(N3CCCCC3)cc2)N1c1ccc(Br)cc1` (stereo not drawn) [Example 173, 1,3-bis(4-bromophenyl)-5-hydroxy-5-(4-(piperidin-1-yl)phenyl)imidazolidine-2,4-dione], the negative-log IC50 (pIC50) is < 4.30.
For the compound `O=C1N(c2ccc(Br)cc2)C(=O)C(O)(c2ccc(OC3CCC3)cc2)N1c1ccc(Br)cc1` (stereo not drawn) [Example 174, 1,3-bis(4-bromophenyl)-5-(4-cyclobutoxyphenyl)-5-hydroxyimidazolidine-2,4-dione], the pIC50 is < 4.30.
In the case of `Cc1ccc(N2C(=O)N(c3ccc(C)cc3)C(O)(c3cccc(OC(F)(F)F)c3)C2(C)C)cc1` (stereo not drawn) [Example 176, 4-hydroxy-5,5-dimethyl-1,3-di-p-tolyl-4-(3-(trifluoromethoxy)phenyl)-imidazolidin-2-one], the pIC50 was > 6.00.
For the compound `CC1(C(F)(F)F)N(c2ccc(Cl)cc2)C(=O)N(c2ccc(Cl)cc2)C1(O)c1cccc(C#N)c1` (stereo not drawn) [Example 177, 3-(1,3-bis(4-chlorophenyl)-4-hydroxy-5-methyl-2-oxo-5-(trifluoromethyl)imidazolidin-4-yl)benzonitrile], the negative-log IC50 (pIC50) was > 6.00.
Turning to `O=C1N(c2ccc(Br)cc2)C(=O)C(O)(c2ccc(-c3ccc(F)cc3)cc2)N1c1ccc(Br)cc1` (stereo not drawn) [Example 178, 1,3-bis(4-bromophenyl)-5-(4′-fluoro-[1,1′-biphenyl]-4-yl)-5-hydroxyimidazolidine-2,4-dione], the pIC50 was < 4.30.
Regarding `COc1cccc(C2(O)C(=O)N(c3ccc(Br)cc3)C(=O)N2c2ccc(Br)cc2)c1` (stereo not drawn) [Example 179, 1,3-bis(4-bromophenyl)-5-hydroxy-5-(3-methoxyphenyl)imidazolidine-2,4-dione], the pIC50 is 4.30 to 5.00.
Turning to `CC1N(c2ccc(C#N)cc2)C(=O)N(c2ccc(C#N)cc2)C1(O)c1cccc(OC(F)(F)F)c1` (stereo not drawn) [Example 180, 4,4′-(4-hydroxy-5-methyl-2-oxo-4-(3-(trifluoromethoxy)phenyl)imidazolidine-1,3-diyl)dibenzonitrile], the pIC50 was 5.00 to 6.00.
Regarding `C[C@@H]1N(c2ccc(C#N)cc2)C(=O)N(c2ccc(C#N)cc2)C1(O)c1cccc(OC(F)(F)F)c1` (stereo partly drawn) [Example 180-1, 4,4′-((5S)-4-hydroxy-5-methyl-2-oxo-4-(3-(trifluoromethoxy)phenyl)imidazolidine-1,3-diyl)dibenzonitrile], the pIC50 was > 6.00.
On to `C[C@H]1N(c2ccc(C#N)cc2)C(=O)N(c2ccc(C#N)cc2)C1(O)c1cccc(OC(F)(F)F)c1` (stereo partly drawn) [Example 180-2, 4,4′-((5R)-4-hydroxy-5-methyl-2-oxo-4-(3-(trifluoromethoxy)phenyl)imidazolidine-1,3-diyl)dibenzonitrile], for which the pIC50 is > 6.00.
For `O=C1N(c2cccc(Br)c2)C(=O)C(O)(c2ccccc2)N1c1cccc(Br)c1` (stereo not drawn) [Example 181, 1,3-bis(3-bromophenyl)-5-hydroxy-5-phenylimidazolidine-2,4-dione], the pIC50 is 4.00 to 4.30.
Regarding `CCCCOc1ccc(C2(O)C(=O)N(c3ccc(Br)cc3)C(=O)N2c2ccc(Br)cc2)cc1` (stereo not drawn) [Example 182, 1,3-bis(4-bromophenyl)-5-(4-butoxyphenyl)-5-hydroxyimidazolidine-2,4-dione], the pIC50 was < 4.30.
For `O=C1N(c2ccc(Br)cc2)C(=O)C(O)(c2ccc(OCC3CCCC3)cc2)N1c1ccc(Br)cc1` (stereo not drawn) [Example 183, 1,3-bis(4-bromophenyl)-5-(4-(cyclopentylmethoxy)phenyl)-5-hydroxyimidazolidine-2,4-dione], the pIC50 is < 4.30.
For `O=C1N(c2ccc(Br)cc2)C(=O)C(O)(c2ccc(OCC3CC3)cc2)N1c1ccc(Br)cc1` (stereo not drawn) [Example 184, 1,3-bis(4-bromophenyl)-5-(4-(cyclopropylmethoxy)phenyl)-5-hydroxyimidazolidine-2,4-dione], the pIC50 is < 4.30.
For `CC1(C)N(c2ccc(Cl)cc2)C(=O)N(c2ccc(Cl)cc2)C1(O)c1cncc(C#N)c1` (stereo not drawn) [Example 186, 5-(1,3-bis(4-chlorophenyl)-4-hydroxy-5,5-dimethyl-2-oxoimidazolidin-4-yl)nicotinonitrile] the value was > 6.00.
As for `N#Cc1cccc(C2(O)[C@H](C3CC3)N(c3ccc(Cl)cc3)C(=O)N2c2ccc(Cl)cc2)c1` (stereo partly drawn) [Example 187-1, 3-((5S)-1,3-bis(4-chlorophenyl)-5-cyclopropyl-4-hydroxy-2-oxoimidazolidin-4-yl)benzonitrile], the negative logarithm of the IC50 (pIC50) was > 6.00.
Take `N#Cc1cccc(C2(O)[C@@H](C3CC3)N(c3ccc(Cl)cc3)C(=O)N2c2ccc(Cl)cc2)c1` (stereo partly drawn) [Example 187-2, 3-((5R)-1,3-bis(4-chlorophenyl)-5-cyclopropyl-4-hydroxy-2-oxoimidazolidin-4-yl)benzonitrile]: the pIC50 is > 6.00.
Take `CC1(C)N(c2ccc(Cl)cc2)C(=O)N(c2ccc(Cl)cc2)C1(O)c1cc(C#N)cc(C#N)c1` (stereo not drawn) [Example 188, 5-(1,3-bis(4-chlorophenyl)-4-hydroxy-5,5-dimethyl-2-oxoimidazolidin-4-yl)isophthalonitrile]: the pIC50 is > 6.00.
